Measured values published in PubChem BioAssay AID1159563 (GlaxoSmithKline (GSK), 2015).
Calls of active or inactive are those of the source. How the calls were made is not given here.

system: HepG2 cytotoxicity; assay: human hepatoma cell viability loss – cytotoxicity control (AID 1159563)

Row | Compound | IC50
1 | CS(=O)(=O)NC1CCC(Nc2ncc(Br)c(Nc3ccccc3C(N)=O)n2)CC1 (stereo not given) | > 100 µM (inactive)
2 | N#Cc1c(Oc2cccc(Cl)c2)cccc1[N+](=O)[O-] | 25 µM
3 | Cc1sc(C)c(C(F)(F)F)c1CNCCCNc1cc(=O)c2ccccc2[nH]1 | 50 µM
4 | CCOC(=O)c1noc(N)c1-c1ccccc1 | > 100 µM (inactive)
5 | CCN(CC)S(=O)(=O)c1ccc(Cn2nc(C(=O)Nc3ccncn3)c3ccccc32)cc1 | > 100 µM (inactive)
6 | O=C1c2cnc(N3CCCC3)nc2CN1c1ccc2c(c1)OCO2 | > 100 µM (inactive)
7 | CC(C)(C)c1cc(NC2CC2)nc(-c2ccccn2)n1 | > 100 µM (inactive)
8 | Cc1ccnc(NS(=O)(=O)c2ccc(NC(=O)c3ccc([N+](=O)[O-])s3)cc2)n1 | 16 µM
9 | CCc1nn(-c2ncc(F)c(NC(C)C)n2)c(N)c1C1CCCCC1 | 32 µM
10 | CCOc1ccc(NC(=O)C=Cc2ccc(CC)o2)cc1 | 79 µM
11 | O=C(N1CCc2ccccc2CC1)C1(C(=O)N2CCC(n3c(=O)[nH]c4ncccc43)CC2)CC1 | > 100 µM (inactive)
12 | COc1ccc(-c2csc(NC(=O)c3ccc([N+](=O)[O-])s3)n2)cc1 | > 100 µM (inactive)
13 | NC(=O)c1ccsc1NC(=O)c1ccc([N+](=O)[O-])s1 | > 100 µM (inactive)
14 | O=C(NNC(=O)c1ccccn1)c1ccc(-c2ccccc2)cc1 | > 100 µM (inactive)
15 | CC(C)(C)CC(=O)NCc1noc(COc2ccccc2)n1 | > 100 µM (inactive)
16 | N#Cc1cc([N+](=O)[O-])ccc1NC1CCCCCC1 | > 100 µM (inactive)
17 | COc1ccccc1C(=O)Nc1nnc(-c2ccc3c(c2)OCO3)s1 | > 100 µM (inactive)
18 | CC(C)COC(=O)Nc1ccc(N2CCC(CNS(=O)(=O)c3ccccc3)CC2)c(F)c1 | > 100 µM (inactive)
19 | O=C(NCCc1nc(-c2ccc(F)c(F)c2)n[nH]1)C1CCCCC1 | > 100 µM (inactive)
20 | Nc1nc(-c2ccccn2)nc(-n2nc(-c3ccccc3)cc2N)n1 | 10 µM
21 | Nc1nc(-c2ccccn2)nc(N)c1Cc1c(F)cccc1Cl | 20 µM
22 | Cc1cc(Nc2cc(C3CC3)[nH]n2)nc(N2CCC[C@H]2C(N)=O)n1 | > 100 µM (inactive)
23 | CCCC(=O)N(Cc1ccccn1)c1nc2ccccc2s1 | > 100 µM (inactive)
24 | NC(N)=Nc1nc(-c2ccc(NC(N)=NCCN3CCCC3)cc2)cs1 | > 100 µM (inactive)
25 | CC1=C(C(=O)Nc2ccc(Cl)cc2)C(c2ccncc2)n2ncc(C(=O)Nc3ccccc3)c2N1 (stereo not given) | 79 µM

Row | Compound | IC50
26 | CCn1nccc1CN(C)C(=O)C=Cc1ccc(Cl)cc1 | > 100 µM (inactive)
27 | COc1cnc2ccc(=O)n(CCN3CCC(NC(=O)Cc4ccc(Cl)c(Cl)c4)CC3)c2c1 | 63 µM
28 | N#Cc1cccc(CN2CCC(c3nc(-c4ccc(C(F)(F)F)nc4)no3)CC2)c1 | > 100 µM (inactive)
29 | CN1CCCN(C(=O)c2ccc(N3CCCC3)cc2Cl)CC1 | > 100 µM (inactive)
30 | C=CCN(Cc1cccs1)C(=O)CSc1nnc(-c2ccc3c(c2)OCO3)o1 | > 100 µM (inactive)
31 | Cc1ccc2nc(N(Cc3cccnc3)C(=O)CCc3ccccc3)sc2c1 | > 100 µM (inactive)
32 | CCC(=O)Nc1ccc(-c2nc3ccc(Cl)cc3[nH]2)cc1 | > 100 µM (inactive)
33 | COc1cc(C(C)C)c(S(C)(=O)=O)cc1C(=O)N1CCN(c2ccccc2Cl)CC1 | > 100 µM (inactive)
34 | COc1ccccc1-n1c(SCC(=O)Nc2ccc3c(c2)OCO3)nc2c(c1=O)SCC2 | > 100 µM (inactive)
35 | COc1ccc(OC)c2c(=O)c(Cc3ccccc3)c(C)[nH]c12 | > 100 µM (inactive)
36 | C=CCOCC1Cn2nc([N+](=O)[O-])nc2O1 (stereo not given) | > 100 µM (inactive)
37 | CCc1cccc(CC)c1-n1c(SCC(=O)N2CC(=O)Nc3ccccc32)nnc1-c1cccnc1 | > 100 µM (inactive)
38 | CCc1c(C)nc(-n2nc(C)cc2NC(=O)COc2ccccc2F)[nH]c1=O | > 100 µM (inactive)
39 | CCCCn1c(=O)c2c(N)onc2n(CCCC)c1=O | 50 µM
40 | COc1cnc2ccc(=O)n(CCN3CCC(NC/C=C/c4cc(F)ccc4F)CC3)c2c1 | 63 µM
41 | COCCn1c(-c2ccccc2)cnc1NCc1ccccc1OC | 20 µM
42 | CN(CC1CCCO1)S(=O)(=O)c1ccc(C(=O)Nc2nc(-c3ccccn3)cs2)cc1 (stereo not given) | 63 µM
43 | COc1cc(-c2noc(CC#N)n2)ccc1OC(F)F | > 100 µM (inactive)
44 | Cc1cc2cc(CNc3ccc4c(c3)OCO4)c(=O)n(CCO)c2cc1C | > 100 µM (inactive)
45 | Clc1ccc(Sc2cnccc2N2CCOCC2)cc1 | > 100 µM (inactive)
46 | Cc1cc2nc(CN(C)Cc3ncccc3C)[nH]c2cc1C | 40 µM
47 | COc1ccc(-c2nc3ncccc3o2)cc1NC(=O)c1cccs1 | > 100 µM (inactive)
48 | Cc1ccccc1NS(=O)(=O)c1ccc2[nH]cc(C(=O)NC3CCCCC3)c(=O)c2c1 | 32 µM
49 | COc1cccc(-c2c(C)nn(-c3nc(N)nc(-c4ccccn4)n3)c2N)c1 | > 100 µM (inactive)
50 | O=C(N[C@H](CO)c1ccccc1)c1ccc(-c2c[nH]c3nccc(C(F)(F)F)c23)s1 | 63 µM

Row | Compound | IC50
51 | Cc1ccc(NC(=O)c2ccnc(N3CCCC3)c2)cc1-c1ccsc1C(N)=O | > 100 µM (inactive)
52 | O=C(CCc1ccc(-c2ccccc2)o1)N1CCN(c2ccc(O)cc2)CC1 | > 100 µM (inactive)
53 | O=C(c1ccc(O)c(Cl)c1)N1CCN(c2cnccn2)CC1 | > 100 µM (inactive)
54 | Cn1cc(CN2CCN(c3ccc4c(c3)CCN(C(=O)[C@H]3C[C@@H]3c3ccccc3)CC4)CC2)cn1 | 50 µM
55 | CC(Cn1ccnc1)NC(=O)COc1ccc(Cl)c(Cl)c1 (stereo not given) | > 100 µM (inactive)
56 | CCOc1ccc(OCC(=O)N2c3ccccc3CC2C(=O)NC)cc1 (stereo not given) | > 100 µM (inactive)
57 | CN(C)Cc1cccc(Nc2nccc(-c3ccc(NCCN)c(C#N)c3)n2)c1 | 25 µM
58 | CCCCN(C(=O)c1ccc(NC(=O)C(C)C)cc1)c1ccccc1 | > 100 µM (inactive)
59 | COc1ccc(Cc2nc(-c3ncc4cccnc4c3O)n[nH]2)cc1OC | 50 µM
60 | O=C(Nc1nc(-c2ccc(F)cc2)cs1)c1ccc([N+](=O)[O-])s1 | 13 µM
61 | COc1ccc(C(=O)NC2CCN(CCn3c(=O)ccc4ncc(F)cc43)CC2)cc1Cl | > 100 µM (inactive)
62 | O=C(Nc1nc(-c2ccccn2)cs1)C1CCc2ccccc2C1 (stereo not given) | 40 µM
63 | Cn1c(CC(=O)NNC(=O)c2ccc3ccccc3n2)nc2ccccc21 | > 100 µM (inactive)
64 | Cc1nc(N2CC(C)OC(C)C2)sc1C(=O)Nc1ccc2c(c1)OCO2 (stereo not given) | > 100 µM (inactive)
65 | O=C(CC1(O)C(=O)N(Cc2ccccc2)c2ccc(Br)cc21)c1cccnc1 (stereo not given) | 63 µM
66 | CN(C)S(=O)(=O)c1ccc(-c2cnc(N)c(-c3nc4ccc(F)cc4[nH]3)c2)cc1 | > 100 µM (inactive)
67 | CN(C)S(=O)(=O)c1cccc(CSc2nnc(-c3ccc4c(c3)OCO4)o2)c1 | > 100 µM (inactive)
68 | Cc1ccc(Nc2nc(C3CCCN3Cc3ccn[nH]3)cs2)nc1 (stereo not given) | 32 µM
69 | COc1ccnc2[nH]cc(-c3cc(C(=O)N[C@H](CO)c4ccccc4)co3)c12 | 16 µM
70 | N#Cc1cccc(CN2CCC(N(Cc3cccnc3)C(=O)c3cc(F)c(F)cc3F)CC2)c1 | > 100 µM (inactive)
71 | FC(F)(F)c1cc(C2CCCN(Cc3c[nH]c4ccccc34)C2)nc2ncnn12 (stereo not given) | > 100 µM (inactive)
72 | Cc1cc(Oc2cc(Cl)c(Cl)cc2Cl)n2ncnc2n1 | 32 µM
73 | Cc1nn(-c2nc(N)nc(-c3ccccn3)n2)c(C)c1Cc1ccccc1 | > 100 µM (inactive)
74 | CCOc1ccc2nc(NC(=O)c3ccc([N+](=O)[O-])s3)sc2c1 | 32 µM
75 | Cc1nnnn1-c1cccc(C(=O)N2CCC[C@@]3(C)c4ncncc4CCC23)c1 (stereo not given in full) | > 100 µM (inactive)

Row | Compound | IC50
76 | CC(C)(C)Nc1nc(Nc2ccc3c(c2)CS(=O)(=O)C3)nc2[nH]ccc12 | 32 µM
77 | COc1cccc(CN(C)Cc2nc(N)c3c(C)c(C)sc3n2)c1 | 40 µM
78 | Clc1ccc(CN2CCN(C3=NCCN3)CC2)cc1Cl | 63 µM
79 | O=C(c1cccc(Nc2ncc(-c3ccc4c(c3)OCO4)cn2)c1)N1CCSC1 | 10 µM
80 | O=C(Nc1ccc(Br)c(Cl)c1)Nc1ccc2c(c1)OCO2 | > 100 µM (inactive)
81 | O=C(c1ccc(Cl)cc1)c1ccc(OC(=O)N2CCOCC2)cc1 | > 100 µM (inactive)
82 | O=C(NC(CO)c1ccc(F)cc1)c1ccc(-c2c[nH]c3ncccc23)s1 (stereo not given) | 40 µM
83 | CS(=O)(=O)c1ccccc1C(=O)N(Cc1ccccc1)c1ccccc1 | > 100 µM (inactive)
84 | CC(=O)Nc1ccc(CN2CCC(N3CC(c4ccccc4)(c4ccccc4)OCC3=O)CC2)cc1 | 79 µM
85 | COc1ccc(C2C3CCCCC3(O)CCN2CC(=O)Nc2ccc(Cl)cc2Cl)cc1 (stereo not given) | > 100 µM (inactive)
86 | COc1ccccc1C1CC(c2ccc(NS(C)(=O)=O)cc2)=NN1C(=O)c1cccs1 (stereo not given) | > 100 µM (inactive)
87 | CNc1nc(C)nc(N2CCc3cc(C(=O)NCc4ccc(-c5ccn[nH]5)cc4Cl)ccc32)n1 | > 100 µM (inactive)
88 | CCOC(=O)c1cn[nH]c1S(=O)(=O)N1CCC1c1ccccc1 (stereo not given) | > 100 µM (inactive)
89 | CC1CN(S(=O)(=O)c2ccc(NC(=O)c3cc(C4CC4)nc4c3cnn4C(C)C)cc2)CC(C)O1 (stereo not given) | > 100 µM (inactive)
90 | O=c1cc(NCCCNCc2cc(C(F)(F)F)cs2)[nH]c2ccccc12 | 63 µM
91 | CNc1cncc(C2CCCN2C(=O)Cc2coc3cc(C)ccc23)n1 (stereo not given) | > 100 µM (inactive)
92 | O=c1[nH]c(C=Cc2cccc(OCCOc3ccccc3)c2)nc(O)c1[N+](=O)[O-] | > 100 µM (inactive)
93 | CC(C)c1sc(Cl)nc1C(=O)NCCc1nc(C(=O)Nc2ccc3c(c2)OCO3)cs1 | > 100 µM (inactive)
94 | Cc1cc(C)cc(NS(=O)(=O)c2cc(-c3cc(C)[nH]n3)ccc2C)c1 | 63 µM
95 | Cc1cc(C)nc(N2CCC(N(Cc3cccnc3)C(=O)c3cccc(C#N)c3)CC2)n1 | > 100 µM (inactive)
96 | O=C(CSc1ccc(-c2ccccn2)nn1)Nc1ccc(Cl)cc1 | > 100 µM (inactive)
97 | CCCc1cc(C(=O)Nc2ncc(-c3cccc(Br)c3)n2C)n[nH]1 | > 100 µM (inactive)
98 | CC(=O)Nc1ccc(Nc2nccc(-c3cnn4ncccc34)n2)cc1C(F)(F)F | > 100 µM (inactive)
99 | CCc1ccc2nc(NC(=O)c3cc(N4CCOCC4)ccn3)sc2c1 | > 100 µM (inactive)
100 | Oc1c(-c2n[nH]c(Cc3ccc(Cl)cc3)n2)ncc2cccnc12 | 40 µM
